Reference: patent publication US8685987B2, “Substituted [1,2,4]triazolo[1,5-a]pyrimidines and their use as potassium channel modulators” (Ataxion, Inc., priority 2009, dated 2014)

The compounds below were run against T1, hSK1 channels (Homo sapiens, UniProt Q92952) (assay: Whole-cell patch-clamp recording of SK current in HEK293 cells expressing hSK1 channels). Conditions: SK1 activation.
T1 construct: expressed in transfected cells; host or cells: HEK293
Type: cell-based
Source text: The compounds of the invention may be tested for their ability to modulate SK channels in vitro. Functional modulation can be determined by measuring the compound-induced change in SK current by the patch clamp technique as described in Strøbk et al.: “Pharmacological characterization of small-conductance Ca^2+-activated K channels expressed in HEK293 cells”, British Journal of Pharmacology (2000) 129, 991-999. From this type of measurements the potency of a given compound can be determined as e.g. Ki or IC50 values for blockers/inhibitors and EC50 values for openers/activators. Similar data can be obtained from other patch clamp configurations and from channels expressed endogenously in various cell lines.
The ionic current through small-conductance Ca^2+-activated K^+ channels (SK channels, subtype 1) is recorded using the whole-cell configuration of the patch-clamp technique in a classic patch-clamp set-up using HEK293 tissue culture cells expressing hSK1 channels as described in e.g. WO 2006/100212.
The SC100 value determined is defined as the Stimulating Concentration required for increasing the baseline current by 100%. The below SC100 values are an indication of the SK1 activating properties of the compounds of the invention.

Row | The SC100 (Stimulating Concentration required for increasing the baseline current by 100%) [µM] | Compound
1 | 0.015 | CON=CNc1nc2nccc(C(C)Oc3ccc(Br)cc3)n2n1 (stereo not drawn) [Example 1, N-{7-[1-(4-Bromophenoxy)ethyl]-[1,2,4]triazolo[1,5-a]pyrimidin-2-yl}-N′-methoxy-formamidine]
2 | 0.005 | CON=CNc1nc2nccc(C(C)Oc3ccc(Cl)cc3Cl)n2n1 (stereo not drawn) [Example 2, N-{7-[1-(2,4-Dichlorophenoxy)ethyl]-[1,2,4]triazolo[1,5-a]pyrimidin-2-yl}-N′-methoxy-formamidine]
3 | 0.04 | CON=CNc1nc2nccc(C(C)Oc3ccc(Cl)cc3)n2n1 (stereo not drawn) [Example 3, N-{7-[1-(4-Chlorophenoxy)ethyl]-[1,2,4]triazolo[1,5-a]pyrimidin-2-yl}-N′-methoxy-formamidine]
4 | 0.003 | CCCON=CNc1nc2nccc(C(C)Oc3ccc(Cl)cc3C)n2n1 (stereo not drawn) [Example 5, N-{7-[1-(4-Chloro-2-methylphenoxy)ethyl]-[1,2,4]triazolo[1,5-a]pyrimidin-2-yl}-N′-propyloxy-formamidine]
5 | 0.40 | Cc1cc(Cl)ccc1OC(C)c1ccnc2nc(NC=NOC(C)C)nn12 (stereo not drawn) [Example 6, N-{7-[1-(4-Chloro-2-methylphenoxy)ethyl]-[1,2,4]triazolo[1,5-a]pyrimidin-2-yl}-N′-isopropyloxy-formamidine]
6 | 0.60 | CON=CNc1nc2nccc(C(C)(C)Oc3ccc(Cl)cc3C)n2n1 [Example 7, N-{7-[1-(4-Chloro-2-methylphenoxy)-1-methyl-ethyl]-[1,2,4]triazolo[1,5-a]pyrimidin-2-yl}-N′-methoxy-formamidine]
7 | 0.008 | CON=CNc1nc2nccc(C(C)Oc3ccc(Cl)cc3C)n2n1 (stereo not drawn) [Example A, N-{7-[1-(4-Chloro-2-methylphenoxy)ethyl]-[1,2,4]triazolo[1,5-a]pyrimidin-2-yl}-N′-methoxy-formamidine]
8 | 0.075 | CON=CNc1nc2nccc(C(C)Oc3ccc(F)cc3)n2n1 (stereo not drawn) [Example B, N-{7-[1-(4-Fluorophenoxy)ethyl]-[1,2,4]triazolo[1,5-a]pyrimidin-2-yl}-N′-methoxy-formamidine]
9 | 0.20 | N-{7-[1-(4-Chloro-2-methylphenoxy)-ethyl]-6-methyl-[1,2,4]triazolo[1,5-a]pyrimidin-2-yl}-N′-hydroxy-formamidine [Example 4]
